In patent US6461997B1, “Triazole sulfones having herbicidal activity” (Monsanto Technology LLC, priority 1999, dated 2002):

Columns and labels:
[1] = test system: PANMI (wild proso millet); assay: Pre-emergence herbicidal activity, warm season; type: in vivo, Panicum miliaceum; settings: GR80 = lowest tested rate (300, 100, 30, 10 g/ha) with 80% or greater inhibition; approx. 14 days after treating; 30/21° C.
Procedure: (§1) Tables 5 to 8 summarize results of tests conducted as described below to determine the pre-emergence herbicidal activity, in the form of a GR80 value, of illustrative compounds of this invention. […] Compounds of the invention were typically applied at rates of 300, 100, 30, and 10 g/ha. Where herbicidal activity was evident but 80% inhibition was not achieved at the highest rate tested, an asterisk (*) is shown in the following tables.
(§2) The pre-emergence tests were conducted by the following procedure. Topsoil was sieved to pass through a 1.27 cm screen. Fertilizer was added to the topsoil and the mixture was then sterilized by heating. The topsoil mixture was placed in a pot and compacted to a depth of 1.0 to 1.25 cm from the top of the pot. Seeds of each of several monocotyledonous and dicotyledonous annual plant species were placed on top of the soil. Additional soil was subsequently placed over the seeds to level-fill the pot. A known amount of each test compound dissolved or suspended in an appropriate organic solvent was diluted with a 50:50 mix of acetone and water and applied to the surface of the soil. After treatment the plants were placed in a greenhouse where they received 0.64 cm of overhead irrigation. All subsequent watering consisted of a light overhead mist and/or subirrigation as needed for germination and growth. Tables 5 and 6 below relate to warm season plant species which were placed after pre-emergence treatment in a greenhouse with a 30/21° C. day/night temperature regime. Tables 7 and 8 below relates to cool season plant species placed after pre-emergence treatment in a greenhouse or growth chamber with an 18/13° C. day/night temperature regime.
(§3) Approximately 14 days after planting and treating, the plants were observed and herbicidal efficacy recorded as percent inhibition by comparison with untreated plants.
(§4) The plant species usually regarded as weeds which were utilized in the tests are identified in the tables below according to the following legend, in which “d” indicates a dicotyledonous species and “m” a monocotyledonous species. All monocotyledonous species included in the tests herein are grasses.

[2] = test system: GALAP (catchweed bedstraw); assay: Pre-emergence herbicidal activity, cool season; type: in vivo, Galium aparine; settings: lowest tested rate with 80% or greater inhibition; rates 300, 100, 30, 10 g/ha; about 14 days
Procedure: as §1, §2, §3, §4

[3] = test system: LAMPU (purple deadnettle); assay: Pre-emergence herbicidal activity, cool season; type: in vivo, Lamium purpureum; settings: lowest tested rate with 80% or greater inhibition; rates 300, 100, 30, 10 g/ha; about 14 days
Procedure: as §1, §2, §3, §4

SASKR (russian thistle) = assay: Pre-emergence herbicidal activity, cool season; type: in vivo, Salsola kali; settings: lowest tested rate with 80% or greater inhibition; rates 300, 100, 30, 10 g/ha; about 14 days
Procedure: as §1, §2, §3, §4

ALOMY (blackgrass) = assay: Pre-emergence herbicidal activity, cool season; type: in vivo, Alopecurus myosuroides; settings: GR80 = lowest tested rate (300, 100, 30, 10 g/ha) with 80% or greater inhibition; approx. 14 days after treating; 18/13° C.
Procedure: as §1, §2, §3, §4

SINAR (wild mustard) = assay: Pre-emergence herbicidal activity, cool season; type: in vivo, Sinapis arvensis; settings: lowest tested rate with 80% or greater inhibition; rates 300, 100, 30, 10 g/ha; about 14 days
Procedure: as §1, §2, §3, §4

[4] = test system: VERPE (creeping speedwell); assay: Pre-emergence herbicidal activity, cool season; type: in vivo, Veronica persicaria; settings: lowest tested rate with 80% or greater inhibition; rates 300, 100, 30, 10 g/ha; about 14 days
Procedure: as §1, §2, §3, §4

POLCO (wild buckwheat) = assay: Pre-emergence herbicidal activity, cool season; type: in vivo, Polygonum convolvulus; settings: lowest tested rate with 80% or greater inhibition; rates 300, 100, 30, 10 g/ha; about 14 days
Procedure: as §1, §2, §3, §4

STEME (common chickweed) = assay: Pre-emergence herbicidal activity, cool season; type: in vivo, Stellaria media; settings: lowest tested rate with 80% or greater inhibition; rates 300, 100, 30, 10 g/ha; about 14 days
Procedure: as §1, §2, §3, §4

[5] = test system: CHEAL (common lambsquarters); assay: Pre-emergence herbicidal activity, warm season; type: in vivo, Chenopodium album; settings: GR80 = lowest tested rate (300, 100, 30, 10 g/ha) with 80% or greater inhibition; approx. 14 days after treating; 30/21° C.
Procedure: as §1, §2, §3, §4

DIGSA (large crabgrass) = assay: Pre-emergence herbicidal activity, warm season; type: in vivo, Digitaria sanguinalis; settings: GR80 = lowest tested rate (300, 100, 30, 10 g/ha) with 80% or greater inhibition; approx. 14 days after treating; 30/21° C.
Procedure: as §1, §2, §3, §4

[6] = test system: AGSST (creeping bentgrass); assay: Pre-emergence herbicidal activity, cool season; type: in vivo, Agrostis stolonifera; settings: GR80 = lowest tested rate (300, 100, 30, 10 g/ha) with 80% or greater inhibition; approx. 14 days after treating; 18/13° C.
Procedure: as §1, §2, §3, §4

ECHCG (barnyardgrass) = assay: Pre-emergence herbicidal activity, warm season; type: in vivo, Echinochloa crus-galli; settings: GR80 = lowest tested rate (300, 100, 30, 10 g/ha) with 80% or greater inhibition; approx. 14 days after treating; 30/21° C.
Procedure: as §1, §2, §3, §4

[7] = test system: SORHA (johnsongrass (seedling)); assay: Pre-emergence herbicidal activity, warm season; type: in vivo, Sorghum halepense; settings: GR80 = lowest tested rate (300, 100, 30, 10 g/ha) with 80% or greater inhibition; approx. 14 days after treating; 30/21° C.
Procedure: as §1, §2, §3, §4

POROL (common purslane) = assay: Pre-emergence herbicidal activity, warm season; type: in vivo, Portulaca oleracea; settings: GR80 = lowest tested rate (300, 100, 30, 10 g/ha) with 80% or greater inhibition; approx. 14 days after treating; 30/21° C.
Procedure: as §1, §2, §3, §4

SETVI (green foxtail) = assay: Pre-emergence herbicidal activity, cool season; type: in vivo, Setaria viridis; settings: GR80 = lowest tested rate (300, 100, 30, 10 g/ha) with 80% or greater inhibition; approx. 14 days after treating; 18/13° C.
Procedure: as §1, §2, §3, §4

SETFA (giant foxtail) = assay: Pre-emergence herbicidal activity, warm season; type: in vivo, Setaria faberi; settings: GR80 = lowest tested rate (300, 100, 30, 10 g/ha) with 80% or greater inhibition; approx. 14 days after treating; 30/21° C.
Procedure: as §1, §2, §3, §4

[8] = test system: BRAPP (broadleaf signalgrass); assay: Pre-emergence herbicidal activity, warm season; type: in vivo, Brachiaria platyphylla; settings: GR80 = lowest tested rate (300, 100, 30, 10 g/ha) with 80% or greater inhibition; approx. 14 days after treating; 30/21° C.
Procedure: as §1, §2, §3, §4

SOLNI (black nightshade) = assay: Pre-emergence herbicidal activity, warm season; type: in vivo, Solanum nigrum; settings: GR80 = lowest tested rate (300, 100, 30, 10 g/ha) with 80% or greater inhibition; approx. 14 days after treating; 30/21° C.
Procedure: as §1, §2, §3, §4

| SMILES | Pre-emergence activity (GR80) PANMI [1] [g/ha] | Pre-emergence activity GR80, GALAP [2] | Pre-emergence activity GR80, LAMPU [3] | Pre-emergence activity GR80, SASKR (SASKR (russian thistle)) | Pre-emergence activity (GR80) ALOMY (ALOMY (blackgrass)) [g/ha] | Pre-emergence activity GR80, SINAR (SINAR (wild mustard)) | Pre-emergence activity GR80, VERPE [4] | Pre-emergence activity GR80, POLCO (POLCO (wild buckwheat)) | Pre-emergence activity GR80, STEME (STEME (common chickweed)) | Pre-emergence activity (GR80) CHEAL [5] [g/ha] | Pre-emergence activity (GR80) DIGSA (DIGSA (large crabgrass)) [g/ha] | Pre-emergence activity (GR80) AGSST [6] [g/ha] | Pre-emergence activity (GR80) ECHCG (ECHCG (barnyardgrass)) [g/ha] | Pre-emergence activity (GR80) SORHA [7] [g/ha] | Pre-emergence activity (GR80) POROL (POROL (common purslane)) [g/ha] | Pre-emergence activity (GR80) SETVI (SETVI (green foxtail)) [g/ha] | Pre-emergence activity (GR80) SETFA (SETFA (giant foxtail)) [g/ha] | Pre-emergence activity (GR80) BRAPP [8] [g/ha] | Pre-emergence activity (GR80) SOLNI (SOLNI (black nightshade)) [g/ha] |
| --- | --- | --- | --- | --- | --- | --- | --- | --- | --- | --- | --- | --- | --- | --- | --- | --- | --- | --- | --- |
| CN(C(=O)n1cnc(S(=O)(=O)C(F)F)n1)c1ccccc1 [Example 27] | 100 | 300 g/ha | 300 g/ha | 300 g/ha | 300 | [empty] | 300 g/ha | 30 g/ha | [empty] | 300 |  |  |  |  |  |  |  |  |  |
| C#CCN(C)C(=O)n1cnc(S(=O)(=O)C(F)F)n1 [Example 31] |  | [empty] | [empty] | [empty] |  | [empty] | [empty] | [empty] | [empty] |  | 300 |  |  |  |  |  |  |  |  |
| O=C(N1CCOCC1)n1cnc(S(=O)(=O)C(F)(F)Br)n1 [Example 36] |  | 300 g/ha | 300 g/ha | [empty] |  | [empty] | [empty] | [empty] | [empty] | 300 |  |  |  |  |  |  |  |  |  |
| CN(C)C(=O)n1cnc(S(=O)(=O)C(F)(F)Br)n1 [Example 37] | 300 | [empty] | 300 g/ha | [empty] |  | [empty] | [empty] | [empty] | 300 g/ha |  | 300 | 100 | 300 | 300 | 300 |  |  |  |  |
| C=CCN(C)C(=O)n1cnc(S(=O)(=O)C(F)(F)Br)n1 [Example 41] | 300 | [empty] | [empty] | [empty] | 300 | [empty] | 100 g/ha | [empty] | [empty] |  |  | 30 |  |  |  |  |  |  |  |
| CON(C)C(=O)n1cnc(S(=O)(=O)C(F)(F)Br)n1 [Example 45] |  | [empty] | [empty] | [empty] |  | 300 g/ha | [empty] | 100 g/ha | 300 g/ha | 300 |  |  |  |  |  | 300 |  |  |  |
| COCCN(C)C(=O)n1cnc(S(=O)(=O)C(F)(F)C(F)F)n1 [Example 64] | 100 | 300 g/ha | 300 g/ha | 10 g/ha | 300 | 100 g/ha | 30 g/ha | 100 g/ha | 100 g/ha |  | 300 | 100 |  |  | 300 | 100 | 300 | 300 |  |
| C=CCN(C)C(=O)n1cnc(S(=O)(=O)C(F)(F)C(F)F)n1 [Example 65] | 300 | 30 g/ha | 100 g/ha | [empty] | 100 | 300 g/ha | 100 g/ha | 100 g/ha | 300 g/ha | 300 |  | 300 |  |  |  | 100 |  |  |  |
| CN(Cc1ccccc1)C(=O)n1cnc(S(=O)(=O)C(F)(F)C(F)F)n1 [Example 68] | 300 | 300 g/ha | [empty] | [empty] |  | 300 g/ha | [empty] | 300 g/ha | [empty] |  |  |  |  |  |  | 300 | 300 |  | 300 |
| CN(C)C(=O)n1cnc(S(=O)(=O)C(F)(F)C(F)(F)Br)n1 [Example 73] | 100 | 100 g/ha | 300 g/ha | 100 g/ha |  | 100 g/ha | 100 g/ha | [empty] | 300 g/ha |  |  | 100 | 300 | 300 |  | 300 |  |  |  |
| C#CCN(C)C(=O)n1cnc(S(=O)(=O)C(F)(F)C(F)(F)Br)n1 [Example 78] |  | [empty] | 100 g/ha | 100 g/ha |  | 30 g/ha | 30 g/ha | [empty] | [empty] |  |  |  |  |  |  |  |  |  | 300 |
| CCN(CC)C(=S)n1cnc(S(=O)(=O)C(F)(F)C(F)(F)Br)n1 [Example 82] | 300 | [empty] | 300 g/ha | [empty] |  | 300 g/ha | 300 g/ha | 300 g/ha | 300 g/ha | 300 |  | 300 |  | 300 | 30 | 100 | 300 | 300 |  |
| C=CCN(C)C(=O)n1cnc(S(=O)(=O)C(F)(F)Cl)n1 [Example 89] | 300 | 300 g/ha | 100 g/ha | 300 g/ha |  | 300 g/ha | [empty] | 100 g/ha | 100 g/ha |  | 100 | 100 |  |  | 100 | 100 |  |  |  |
